Laboratory results: US20100216767A1, “QUINAZOLINES FOR PDK1 INHIBITION” (priority 2006, published 2010)

What follows are compounds tested against T1, PDK1 kinase (Homo sapiens, UniProt O15530) (assay: PDK1 Kinase Alpha Screen Assay). Settings: Table 1; 10 μM ATP, 50 nM PDK1-4 peptide.
T1 sequence (O15530 1-556): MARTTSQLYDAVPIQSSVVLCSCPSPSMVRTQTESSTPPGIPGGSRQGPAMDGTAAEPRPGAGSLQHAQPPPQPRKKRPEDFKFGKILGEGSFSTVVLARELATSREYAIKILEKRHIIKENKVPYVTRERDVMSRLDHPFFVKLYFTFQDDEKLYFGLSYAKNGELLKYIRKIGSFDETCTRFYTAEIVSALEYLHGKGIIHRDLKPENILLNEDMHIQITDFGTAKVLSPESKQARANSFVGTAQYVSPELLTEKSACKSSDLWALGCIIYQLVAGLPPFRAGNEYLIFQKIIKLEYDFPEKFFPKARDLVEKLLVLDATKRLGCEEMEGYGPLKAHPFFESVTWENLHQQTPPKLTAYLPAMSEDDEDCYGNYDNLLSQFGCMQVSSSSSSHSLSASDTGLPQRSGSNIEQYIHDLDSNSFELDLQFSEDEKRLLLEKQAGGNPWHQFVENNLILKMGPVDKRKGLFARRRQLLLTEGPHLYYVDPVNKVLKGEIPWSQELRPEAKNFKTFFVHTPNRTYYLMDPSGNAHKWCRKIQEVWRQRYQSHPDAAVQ
Assay type: biochemical
Procedure: Reagents/Concentrations: The PDK1-4 peptide substrate, biotin-[…]-NH2, (SEQ ID NO: 1), was purchased from the Tufts University Core Facility. The final concentration of PDK1-4 peptide substrate was 50 nM. The ATP substrate (adenosine-[…] triphosphate) was purchased from Roche Diagnostics. The final concentration of ATP substrate was 10 μM. Phospho-(Ser/Thr) PKA substrate antibody was purchased from Cell Signaling Technology. The final concentration of antibody was 0.3 mg/mL. The Alpha Screen Protein A detection kit containing donor and acceptor beads was purchased from PerkinElmer Life Sciences. The final concentration of both donor and acceptor beads was 25 μg/mL. Alpha Screen was used for detection. The biotinylated-PDK1-4 peptide was phosphorylated by PDK1 kinase using the ATP substrate. The biotinylated-PDK1-4 peptide substrate was bound to the streptavidin coated donor bead. The antibody was bound to the protein A coated acceptor bead. The antibody bound to the phosphorylated form of the biotinylated PDK-1 peptide substrate, bringing the donor and acceptor beads into close proximity. Laser irradiation of the donor bead at 680 nm generated a flow of short-lived singlet oxygen molecules. When the donor and acceptor beads were in close proximity, the reactive oxygen generated by the irradiation of the donor beads initiated a luminescence/fluorescence cascade in the acceptor beads. This process led to a highly amplified signal with output in the 530-620 nm range. Assays were carried out in 50 mM Tris, pH=7.5, 10 mM MgCl2, 0.1% BSA, 0.01% Tween-20, 2 mM dithiolthreitol, 2.5% dimethyl sulfoxide. Reactions were stopped by adding 50 mM Tris, pH=7.5, 90 mM EDTA, 0.1% BSA, 0.01% Tween-20.
Procedure: To 10 μl, of PDK1-4 peptide, […] of test compound in dimethyl sulfoxide was added. PDK1 kinase and ATP were mixed, and 10 μL of the PDK1 kinase/ATP mix was added to start the reaction. The reaction was allowed to proceed for 3-18 hours. The reactions were then stopped by adding 10 μL of the EDTA-containing stop buffer. Beads were mixed with antibody, and 25 μL of the bead/antibody mix was then added to the stopped reactions. Plates were incubated at room temperature overnight to allow for detection development before being read. The assay was run in a 384-well format plate.

IC50 [µM] | Structure (SMILES)
< 5 | C#Cc1cc2cnc(Nc3ccc(-c4nnn[nH]4)cc3)nc2cc1OC [Example 96, N-(4-(1H-tetrazol-5-yl)-phenyl)-6-ethynyl-7-methoxyquinazolin-2-amine]
< 5 | C#Cc1cc2cnc(Nc3ccc(-n4cnnn4)cc3)nc2cc1OC [Example 97, N-(4-(1H-tetrozol-1-yl)phenyl)-6-ethynyl-7-methoxyquinazolin-2-amine]
< 5 | C#Cc1ccc2nc(Nc3ccc(N4CCOCC4)cc3)ncc2c1Cl [Example 99, 5-chloro-6-ethynyl-N-(4-morpholinophenyl)quinazolin-2-amine]
< 5 | C#Cc1cc(OC)c2nc(Nc3ccc(N4CCOCC4)cc3)ncc2c1Cl [Example 101, 5-chloro-6-ethynyl-8-methoxy-N-(4-morpholinophenyl)-quinazolin-2-amine]
< 5 | COc1cc2nc(Nc3ccc(C(=O)N4CCOCC4)c(Cl)c3)ncc2cc1Br [Example 102, (4-(6-bromo-7-methoxy-quinazolin-2-ylamino)-2-chlorophenyl)(morpholino)-methanone]
< 5 | COc1cc2nc(Nc3ccc(C(=O)N4CCOCC4)c(Cl)c3)ncc2cc1-c1nccs1 [Example 104]
< 5 | C#Cc1ccc2nc(Nc3ccc(C(=O)NC(C)C)cc3)ncc2c1Cl [Example 106, 4-(5-chloro-6-ethynyl-quinazolin-2-ylamino)-N-isopropylbenzamide]
< 5 | C#Cc1ccc2nc(Nc3ccc(C(=O)NC4CC4)cc3)ncc2c1Cl [Example 107, 4-(5-chloro-6-ethynyl-quinazolin-2-ylamino)-N-cyclopropylbenzamide]
< 5 | C#Cc1cc(OC)c2nc(Nc3ccc(C(=O)N4CCOCC4)cc3)ncc2c1Cl [Example 113, (4-(5-chloro-6-ethynyl-8-methoxyquinazolin-2-ylamino)phenyl)-(morpholino)methanone]
< 5 | C#Cc1cc(OC)c2nc(Nc3ccc(C(=O)NC(C)C)cc3)ncc2c1Cl [Example 114, 4-(5-chloro-6-ethynyl-8-methoxyquinazolin-2-ylamino)-N-isopropyl-benzamide]
< 5 | COc1cc(-c2nccs2)c(Cl)c2cnc(Nc3ccc(N4CCOCC4)cc3)nc12 [Example 115, 5-chloro-8-methoxy-N-(4-morpholinophenyl)-6-(thiazol-2-yl)quinazolin-2-amine]
< 5 | COc1cc(Br)c(Cl)c2cnc(Nc3ccc(N4CCOCC4)cc3)nc12 [Example 116, 6-bromo-5-chloro-8-methoxy-N-(4-morpholinophenyl)-quinazolin-2-amine]
< 5 | COc1cc(-c2nccs2)c(Cl)c2cnc(Nc3ccc(C(=O)N4CCOCC4)cc3)nc12 [Example 117, (4-(5-chloro-8-methoxy-6-(thiazol-2-yl)quinazolin-2-ylamino)phenyl)-(morpholino)-methanone]
< 5 | COc1cc(Br)c(Cl)c2cnc(Nc3ccc(C(=O)N4CCOCC4)cc3)nc12 [Example 118, (4-(6-bromo-5-chloro-8-methoxyquinazolin-2-ylamino)phenyl)-(morpholino)-methanone]
< 5 | COc1cc(-c2nccs2)c(Cl)c2cnc(Nc3ccc(C(=O)NC(C)C)cc3)nc12 [Example 119, 4-(5-chloro-8-methoxy-6-(thiazol-2-yl)quinazolin-2-ylamino)-N-isopropyl-benzamide]
< 5 | C#Cc1cc2cnc(Nc3ccc(C(=O)N4CCOCC4)c(Cl)c3)nc2cc1OC [Example 120, (2-chloro-4-(6-ethynyl-7-methoxyquinazolin-2-ylamino)phenyl)-(morpholino)methanone]
< 5 | C#Cc1ccc2nc(Nc3cccc(N4CCOCC4)c3)ncc2c1Cl [Example 121, 5-chloro-6-ethynyl-N-(3-morpholinophenyl)-quinazolin-2-amine]
5 to 10 | NC(=O)c1cc(Nc2ncc3cc(Br)ccc3n2)ccc1N1CCOCC1 [Example 123, 5-(6-bromoquinazolin-2-ylamino)-2-morpholino-benzamide]
< 5 | C#Cc1ccc2nc(Nc3ccc(N4CCOCC4)c(C(N)=O)c3)ncc2c1 [Example 124, 5-(6-ethynylquinazolin-2-ylamino)-2-morpholino-benzamide]

More lines, now with the values behind:

Structure (SMILES) | IC50 [µM]
CC(=O)Nc1cc(CN(C)C)cc(Nc2ncc3cc(-c4cncnc4)ccc3n2)c1 [Example 92, N-(3-((dimethylamino)-methyl)-5-(6-(pyrimidin-5-yl)quinazolin-2-ylamino)-phenyl)acetamide] | < 5
COc1ncccc1-c1ccc2nc(Nc3cc(CN(C)C)cc(NC(C)=O)c3)ncc2c1 [Example 93, N-(3-((dimethylamino)-methyl)-5-(6-(2-methoxy-pyridin-3-yl)quinazolin-2-ylamino)phenyl)acetamide] | 5 to 10
COc1ncccc1-c1cc(OC)c2nc(Nc3cc(CN(C)C)cc(NC(C)=O)c3)ncc2c1 [Example 94, N-(3-((dimethylamino)-methyl)-5-(8-methoxy-6-(2-methoxypyridin-3-yl)-quinazolin-2-ylamino)-phenyl)acetamide] | 5 to 10
COc1cc(-c2cncnc2)cc2cnc(Nc3cc(CN(C)C)cc(NC(C)=O)c3)nc12 [Example 95, N-(3-((dimethylamino)-methyl)-5-(8-methoxy-6-(pyrimidin-5-yl)-quinazolin-2-ylamino)-phenyl)acetamide] | < 5
C#Cc1cc2cnc(Nc3cccc(-c4nnn[nH]4)c3)nc2cc1OC [Example 98, N-(3-(1H-tetrazol-5-yl)phenyl)-6-ethynyl-7-methoxyquinazolin-2-amine] | < 5
c1csc(-c2ccc3nc(Nc4ccc(N5CCOCC5)cc4)ncc3c2)n1 [Example 100, N-(4-morpholinophenyl)-6-(thiazol-2-yl)quinazolin-2-amine] | < 5
C#Cc1cc2cnc(Nc3cccc(-n4cnnn4)c3)nc2cc1OC [Example 103, N-(3-(1H-tetrazol-1-yl)phenyl)-6-ethynyl-7-methoxyquinazolin-2-amine] | < 5
C#Cc1ccc2nc(Nc3cc(NC(C)=O)cc(NC(C)=O)c3)ncc2c1 [Example 105, N,N′-(5-(6-ethynyl-quinazolin-2-ylamino)-1,3-phenylene)diacetamide] | < 5
COc1ccc2nc(Nc3cc(CN(C)C)cc(NC(C)=O)c3)ncc2c1 [Example 109, N-(3-((dimethylamino)-methyl)-5-(6-methoxy-quinazolin-2-ylamino)-phenyl)acetamide] | < 5
COc1cncc(-c2cc(OC)c3nc(Nc4cc(CN(C)C)cc(NC(C)=O)c4)ncc3c2)n1 [Example 110, N-(3-((dimethylamino)-methyl)-5-(8-methoxy-6-(6-methoxypyrazin-2-yl)quinazolin-2-ylamino)phenyl)acetamide] | < 5
COc1nc(N)ncc1-c1cc(OC)c2nc(Nc3cc(CN(C)C)cc(NC(C)=O)c3)ncc2c1 [Example 111, N-(3-(6-(2-amino-4-methoxypyrimidin-5-yl)-8-methoxyquinazolin-2-ylamino)-5-((dimethyl-amino)methyl)-phenyl)-acetamide] | 5 to 10
COc1cc2nc(Nc3cccc(-n4cnnn4)c3)ncc2cc1-c1nccs1 [Example 112, N-(3-(1H-tetrazol-1-yl)phenyl)-7-methoxy-6-(thiazol-2-yl)quinazolin-2-amine] | < 5
COc1cc2nc(Nc3cc(CN(C)C)cc(NC(C)=O)c3)ncc2cc1-c1nccs1 [Example 122, N-(3-((dimethylamino)-methyl)-5-(7-methoxy-6-(thiazol-2-yl)quinazolin-2-ylamino)phenyl)acetamide] | < 5
C#Cc1ccc2nc(Nc3cc(CN4CCOCC4)cc(NC(C)=O)c3)ncc2c1 [Example 125, N-(3-(6-ethynylquinazolin-2-ylamino)-5-(morpholino-methyl)phenyl)acetamide] | < 5
